The values below come from patent US20230123334A1, “AMINO LIPID COMPOUND, PREPARATION METHOD THEREFOR, AND APPLICATION THEREOF” (SHENZHEN SHENXIN BIOTECHNOLOGY CO., LTD., priority 2020, published 2023).

The test deals with HEK293 cells. Nature of the test: Preliminary screening as mRNA vectors, EGFP mRNA transfection of HEK293 cells. Format: cell-based. The note with it: EGFP mRNA 50 ng per well, 96-well plates; percentage of GFP fluorescent cells relative to total number of cells (Hoechst). The procedure, abridged: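 HEK293 cells in DMEM plus 10% FBS transfected in 96-well format with 50 ng EGFP mRNA per well; Lipofectamine2000 served as positive control. Read-out is the percentage of GFP-fluorescent cells among total cells, counted by Hoechst nuclear stain.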

For the compound `CCCCCCCCCCCCCCCCCCSc1nc(NCCCCCCCCCCCCCCCC)nc(NCCCN2CCN(C)CC2)n1` [Compound D9S18N16], the “Absolute mRNA transfection efficiency in HEK293 cells” value (shortened to “Absolute mRNA transfection efficiency”) turned out to be 0.1%.

As for `CCCCCCCCCCCCCCCCCCNc1nc(NCCCN2CCN(C)CC2)nc(SCCCCCCCCCCCCCCCCCC)n1` [Compound D9S18N18], the “Absolute mRNA transfection efficiency” value was 0.1%.

For `CCCCCCNc1nc(NCC2CCN(C)CC2)nc(SCCCCCC)n1` [Compound D10S6N6], the “Absolute mRNA transfection efficiency” value was found to be 0.3%.

For `CCCCCCCNc1nc(NCC2CCN(C)CC2)nc(SCCCCCC)n1` [Compound D10S6N7], the “Absolute mRNA transfection efficiency” value was found to be 5.5%.

In the case of `CCCCCCCCNc1nc(NCC2CCN(C)CC2)nc(SCCCCCC)n1` [Compound D10S6N8], the “Absolute mRNA transfection efficiency” value is given as 1.4%.

On to `CCCCCCCCCNc1nc(NCC2CCN(C)CC2)nc(SCCCCCC)n1` [Compound D10S6N9], for which the “Absolute mRNA transfection efficiency” value was 1.2%.

In the case of `CCCCCCCCCCCNc1nc(NCC2CCN(C)CC2)nc(SCCCCCC)n1` [Compound D10S6N11], the “Absolute mRNA transfection efficiency” value is recorded as 4.0%.

In the case of `CCCCCCCCCCCCNc1nc(NCC2CCN(C)CC2)nc(SCCCCCC)n1` [Compound D10S6N12], the “Absolute mRNA transfection efficiency” value is 9.6%.

For the compound `CCCCCCCCCCCCCNc1nc(NCC2CCN(C)CC2)nc(SCCCCCC)n1` [Compound D10S6N13], the “Absolute mRNA transfection efficiency” value came out at 22.7%.

As to `CCCCCCCCCCCCCCCNc1nc(NCC2CCN(C)CC2)nc(SCCCCCC)n1` [Compound D10S6N15], the “Absolute mRNA transfection efficiency” value stood at 7.9%.

Consider `CCCCCCCCCCCCCCCCNc1nc(NCC2CCN(C)CC2)nc(SCCCCCC)n1` [Compound D10S6N16], for which the “Absolute mRNA transfection efficiency” value worked out at 41.5%.

As for `CCCCCCCCCCCCCCCCCCNc1nc(NCC2CCN(C)CC2)nc(SCCCCCC)n1` [Compound D10S6N18], the “Absolute mRNA transfection efficiency” value is reported as 41.4%.

On to `CCCCCCSc1nc(NCC2CCN(C)CC2)nc(SCCCCCC)n1` [Compound D10S6S6], for which the “Absolute mRNA transfection efficiency” value was 14.4%.

Consider `CCCCCCCSc1nc(NCC2CCN(C)CC2)nc(SCCCCCC)n1` [Compound D10S6S7], for which the “Absolute mRNA transfection efficiency” value came out at 19.7%.

With `CCCCCCCCSc1nc(NCC2CCN(C)CC2)nc(SCCCCCC)n1` [Compound D10S6S8], the “Absolute mRNA transfection efficiency” value stood at 6.6%.

In the case of `CCCCCCCCCSc1nc(NCC2CCN(C)CC2)nc(SCCCCCC)n1` [Compound D10S6S9], the “Absolute mRNA transfection efficiency” value worked out at 14.7%.

As to `CCCCCCCCCCSc1nc(NCC2CCN(C)CC2)nc(SCCCCCC)n1` [Compound D10S6S10], the “Absolute mRNA transfection efficiency” value is given as 22.4%.

As for `CCCCCCCCCCCSc1nc(NCC2CCN(C)CC2)nc(SCCCCCC)n1` [Compound D10S6S11], the “Absolute mRNA transfection efficiency” value was determined as 15.9%.

Consider `CCCCCCCCCCCCSc1nc(NCC2CCN(C)CC2)nc(SCCCCCC)n1` [Compound D10S6S12], for which the “Absolute mRNA transfection efficiency” value was determined as 41.2%.

With `CCCCCCCCCCCCCCSc1nc(NCC2CCN(C)CC2)nc(SCCCCCC)n1` [Compound D10S6S14], the “Absolute mRNA transfection efficiency” value stood at 54.4%.

With `CCCCCCCCCCCCCCCSc1nc(NCC2CCN(C)CC2)nc(SCCCCCC)n1` [Compound D10S6S15], the “Absolute mRNA transfection efficiency” value was 40.0%.

In the case of `CCCCCCCCCCCCCCCCSc1nc(NCC2CCN(C)CC2)nc(SCCCCCC)n1` [Compound D10S6S16], the “Absolute mRNA transfection efficiency” value was determined as 85.5%.

Regarding `CCCCCCCCCCCCCCCCCCSc1nc(NCC2CCN(C)CC2)nc(SCCCCCC)n1` [Compound D10S6S18], the “Absolute mRNA transfection efficiency” value is given as 72.8%.

Turning to `CCCCCCCSc1nc(NCCCCCC)nc(NCC2CCN(C)CC2)n1` [Compound D10S7N6], the “Absolute mRNA transfection efficiency” value is 2.0%.

Regarding `CCCCCCCNc1nc(NCC2CCN(C)CC2)nc(SCCCCCCC)n1` [Compound D10S7N7], the “Absolute mRNA transfection efficiency” value is reported as 0.9%.

Take `CCCCCCCCNc1nc(NCC2CCN(C)CC2)nc(SCCCCCCC)n1` [Compound D10S7N8]: the “Absolute mRNA transfection efficiency” value came to 1.3%.

Consider `CCCCCCCCCNc1nc(NCC2CCN(C)CC2)nc(SCCCCCCC)n1` [Compound D10S7N9], for which the “Absolute mRNA transfection efficiency” value amounted to 4.6%.

Consider `CCCCCCCCCCCNc1nc(NCC2CCN(C)CC2)nc(SCCCCCCC)n1` [Compound D10S7N11], for which the “Absolute mRNA transfection efficiency” value is recorded as 25.3%.

On to `CCCCCCCCCCCCNc1nc(NCC2CCN(C)CC2)nc(SCCCCCCC)n1` [Compound D10S7N12], for which the “Absolute mRNA transfection efficiency” value was 63.7%.

On to `CCCCCCCCCCCCCNc1nc(NCC2CCN(C)CC2)nc(SCCCCCCC)n1` [Compound D10S7N13], for which the “Absolute mRNA transfection efficiency” value was 70.8%.

As for `CCCCCCCCCCCCCCCNc1nc(NCC2CCN(C)CC2)nc(SCCCCCCC)n1` [Compound D10S7N15], the “Absolute mRNA transfection efficiency” value is on record as 67.3%.

Consider `CCCCCCCCCCCCCCCCNc1nc(NCC2CCN(C)CC2)nc(SCCCCCCC)n1` [Compound D10S7N16], for which the “Absolute mRNA transfection efficiency” value stood at 44.3%.

Take `CCCCCCCCCCCCCCCCCCNc1nc(NCC2CCN(C)CC2)nc(SCCCCCCC)n1` [Compound D10S7N18]: the “Absolute mRNA transfection efficiency” value was 45.8%.

Turning to `CCCCCCCSc1nc(NCC2CCN(C)CC2)nc(SCCCCCCC)n1` [Compound D10S7S7], the “Absolute mRNA transfection efficiency” value worked out at 19.3%.

As for `CCCCCCCCSc1nc(NCC2CCN(C)CC2)nc(SCCCCCCC)n1` [Compound D10S7S8], the “Absolute mRNA transfection efficiency” value was determined as 32.9%.

Take `CCCCCCCCCSc1nc(NCC2CCN(C)CC2)nc(SCCCCCCC)n1` [Compound D10S7S9]: the “Absolute mRNA transfection efficiency” value stood at 33.5%.

For `CCCCCCCCCCSc1nc(NCC2CCN(C)CC2)nc(SCCCCCCC)n1` [Compound D10S7S10], the “Absolute mRNA transfection efficiency” value was 55.8%.

As to `CCCCCCCCCCCSc1nc(NCC2CCN(C)CC2)nc(SCCCCCCC)n1` [Compound D10S7S11], the “Absolute mRNA transfection efficiency” value was found to be 60.8%.

With `CCCCCCCCCCCCSc1nc(NCC2CCN(C)CC2)nc(SCCCCCCC)n1` [Compound D10S7S12], the “Absolute mRNA transfection efficiency” value came out at 80.4%.

Regarding `CCCCCCCCCCCCCCSc1nc(NCC2CCN(C)CC2)nc(SCCCCCCC)n1` [Compound D10S7S14], the “Absolute mRNA transfection efficiency” value is 88.7%.

For the compound `CCCCCCCCCCCCCCCSc1nc(NCC2CCN(C)CC2)nc(SCCCCCCC)n1` [Compound D10S7S15], the “Absolute mRNA transfection efficiency” value is recorded as 90.4%.

For `CCCCCCCCCCCCCCCCSc1nc(NCC2CCN(C)CC2)nc(SCCCCCCC)n1` [Compound D10S7S16], the “Absolute mRNA transfection efficiency” value is on record as 73.7%.

`CCCCCCCCCCCCCCCCCCSc1nc(NCC2CCN(C)CC2)nc(SCCCCCCC)n1` [Compound D10S7S18]: the “Absolute mRNA transfection efficiency” value was 90.5%.

In the case of `CCCCCCCCSc1nc(NCCCCCC)nc(NCC2CCN(C)CC2)n1` [Compound D10S8N6], the “Absolute mRNA transfection efficiency” value stood at 0.4%.

With `CCCCCCCCSc1nc(NCCCCCCC)nc(NCC2CCN(C)CC2)n1` [Compound D10S8N7], the “Absolute mRNA transfection efficiency” value is 0.3%.

With `CCCCCCCCNc1nc(NCC2CCN(C)CC2)nc(SCCCCCCCC)n1` [Compound D10S8N8], the “Absolute mRNA transfection efficiency” value was found to be 1.2%.

In the case of `CCCCCCCCCNc1nc(NCC2CCN(C)CC2)nc(SCCCCCCCC)n1` [Compound D10S8N9], the “Absolute mRNA transfection efficiency” value is 30.2%.

Regarding `CCCCCCCCCCCNc1nc(NCC2CCN(C)CC2)nc(SCCCCCCCC)n1` [Compound D10S8N11], the “Absolute mRNA transfection efficiency” value came out at 81.5%.

In the case of `CCCCCCCCCCCCNc1nc(NCC2CCN(C)CC2)nc(SCCCCCCCC)n1` [Compound D10S8N12], the “Absolute mRNA transfection efficiency” value is 73.1%.

Regarding `CCCCCCCCCCCCCNc1nc(NCC2CCN(C)CC2)nc(SCCCCCCCC)n1` [Compound D10S8N13], the “Absolute mRNA transfection efficiency” value is 75.0%.

Take `CCCCCCCCCCCCCCCNc1nc(NCC2CCN(C)CC2)nc(SCCCCCCCC)n1` [Compound D10S8N15]: the “Absolute mRNA transfection efficiency” value is recorded as 53.3%.

Take `CCCCCCCCCCCCCCCCNc1nc(NCC2CCN(C)CC2)nc(SCCCCCCCC)n1` [Compound D10S8N16]: the “Absolute mRNA transfection efficiency” value stood at 36.4%.

`CCCCCCCCCCCCCCCCCCNc1nc(NCC2CCN(C)CC2)nc(SCCCCCCCC)n1` [Compound D10S8N18]: the “Absolute mRNA transfection efficiency” value amounted to 20.1%.

Regarding `CCCCCCCCSc1nc(NCC2CCN(C)CC2)nc(SCCCCCCCC)n1` [Compound D10S8S8], the “Absolute mRNA transfection efficiency” value amounted to 50.8%.

Take `CCCCCCCCCSc1nc(NCC2CCN(C)CC2)nc(SCCCCCCCC)n1` [Compound D10S8S9]: the “Absolute mRNA transfection efficiency” value is given as 37.6%.

Turning to `CCCCCCCCCCSc1nc(NCC2CCN(C)CC2)nc(SCCCCCCCC)n1` [Compound D10S8S10], the “Absolute mRNA transfection efficiency” value stood at 74.2%.

As to `CCCCCCCCCCCSc1nc(NCC2CCN(C)CC2)nc(SCCCCCCCC)n1` [Compound D10S8S11], the “Absolute mRNA transfection efficiency” value was determined as 67.0%.

As to `CCCCCCCCCCCCSc1nc(NCC2CCN(C)CC2)nc(SCCCCCCCC)n1` [Compound D10S8S12], the “Absolute mRNA transfection efficiency” value is recorded as 67.9%.

For `CCCCCCCCCSc1nc(NCCCCCC)nc(NCC2CCN(C)CC2)n1` [Compound D10S9N6], the “Absolute mRNA transfection efficiency” value was 0.6%.

For `CCCCCCCCCSc1nc(NCCCCCCC)nc(NCC2CCN(C)CC2)n1` [Compound D10S9N7], the “Absolute mRNA transfection efficiency” value is given as 0.9%.

For `CCCCCCCCCSc1nc(NCCCCCCCC)nc(NCC2CCN(C)CC2)n1` [Compound D10S9N8], the “Absolute mRNA transfection efficiency” value is given as 16.3%.

As to `CCCCCCCCCNc1nc(NCC2CCN(C)CC2)nc(SCCCCCCCCC)n1` [Compound D10S9N9], the “Absolute mRNA transfection efficiency” value was 70.0%.
